Experimental data reported in ChEMBL document CHEMBL3286308, “Potent and orally efficacious bisthiazole-based histone deacetylase inhibitors” (ACS Med Chem Lett, 2014).

target: Histone deacetylase 1 (Homo sapiens, UniProt Q13547)
Sequence (Q13547 whole entry): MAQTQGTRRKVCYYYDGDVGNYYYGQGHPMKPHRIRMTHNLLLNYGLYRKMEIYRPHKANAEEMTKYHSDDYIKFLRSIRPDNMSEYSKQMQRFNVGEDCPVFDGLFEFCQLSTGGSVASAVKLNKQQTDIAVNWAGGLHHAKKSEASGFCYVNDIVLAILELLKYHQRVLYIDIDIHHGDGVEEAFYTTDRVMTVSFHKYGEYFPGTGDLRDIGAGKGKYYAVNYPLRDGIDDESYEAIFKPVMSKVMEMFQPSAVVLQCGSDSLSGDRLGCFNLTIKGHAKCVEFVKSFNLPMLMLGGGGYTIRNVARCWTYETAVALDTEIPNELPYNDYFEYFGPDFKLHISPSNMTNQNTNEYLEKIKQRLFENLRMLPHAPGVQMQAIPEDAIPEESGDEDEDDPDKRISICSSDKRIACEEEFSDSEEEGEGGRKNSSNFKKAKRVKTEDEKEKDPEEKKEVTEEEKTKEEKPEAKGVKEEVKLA

**Q.** How did the IC50 turn out when `CCCCCCCC(=O)SCC/C=C/[C@@H]1CC(=O)NCc2nc(cs2)-c2nc(cs2)C(=O)N[C@@H](C(C)C)C(=O)O1` was run?
**A.** The IC50 was 2 µM.

**Q.** `CC(C)[C@H](NC(=O)[C@]1(C)CSC(c2cscn2)=N1)C(=O)OC/C=C/CCS` was tested. Which IC50 did it give?
**A.** Its IC50 is 16.8 µM.

**Q.** For `Cc1nc(C2=N[C@](C)(C(=O)N[C@H](C(=O)OC/C=C/CCS)C(C)C)CS2)cs1`, which IC50 is on record?
**A.** The IC50 was 13.9 µM.

**Q.** How did the IC50 turn out when `CCCCCCCC(=O)SCC/C=C/[C@@H]1CC(=O)NCc2nc(cs2)C2=N[C@@](C)(CS2)C(=O)N[C@@H](C(C)C)C(=O)O1` [LARGAZOLE] was run?
**A.** The IC50 was 0.0137 µM.
